The experiment has as its system mdx mice. Put plainly: Serum creatine kinase (CK) measurement in mdx mice. Format: in vivo, mouse. The conditions noted are these: exercised mdx mice, 1 mg/kg i.p. 3 times per week for 3 months, vs vehicle. Here is the method:
FIG. 4. Andrographolide reduced skeletal muscle damage in mdx mice. To augment the extent of muscle fibrosis, 3 months old mdx mice were subjected to an exercise protocol for 3 months. Along this period one group was treated with 1 mg/kg andrographolide or vehicle (i.p. injections 3 time per week, 6 animal per group). […] B) Evans blue dye uptake in tibialis anterior muscle fibers from wild-type (WT), Vehicle-treated mdx and andrographolide-treated mdx mice. Nuclei were labeled with Hoechst. Mice were injected i.p. with 1% Evans blue dye 24 hours before muscle fixation. Bar corresponds to 200 μm. […] Values are expressed as mean±SD of three independent experiments, using eight mice for each experimental condition. (*, P<0.05 relative to WT mice; #, P<0.05 relative to Vehicle-treated mdx mice).
Control or mdx (12 weeks old) male mice of C57BL/10 ScSn strain were studied. The animals were kept at room temperature with a […] night-day cycle and fed with pellets and water ad libitum. […]
Mice were anesthetized by isofluorane gas, and blood was obtained from the periorbital vascular plexus directly into microhematocrit tubes (70 μl, Fisher Scientific). […] Serum CK was measured by enzymatic system (Valtek, Chile) according to the manufacturer instructions) (Osses and Brandan, 2002).

Entries after “also recorded” stand apart in the source; their conditions may differ.

Consider `C=C1CC[C@@H]2[C@](C)(CO)[C@H](O)CC[C@@]2(C)[C@@H]1C/C=C1/C(=O)OC[C@H]1O` [andrographolide], for which the “serum CK levels” value is listed as “significant reduction; also recorded: decreased”.

For the origin of these results see patent US20140271573A1, “PHARMACO-CELLULAR THERAPEUTIC METHOD FOR THE TREATMENT OF MUSCULAR DYSTROPHIES” (PONTIFICIA UNIVERSIDAD CATÓLICA DE CHILE, priority 2013, published 2014).
